Measured values from ChEMBL document CHEMBL1141976, “Discovery of 2,3,5-trisubstituted pyridine derivatives as potent Akt1 and Akt2 dual inhibitors” (Bioorg Med Chem Lett, 2005).

Tests used:
[1] = Inhibitory concentration against Akt2 kinase; parameters: species or system Homo sapiens
[2] = molecular target: RAC-alpha serine/threonine-protein kinase (Homo sapiens, UniProt P31749); experiment: Inhibitory concentration against Akt1 kinase
[3] = molecular target: RAC-gamma serine/threonine-protein kinase (Homo sapiens, UniProt Q9Y243); experiment: Inhibitory concentration against Akt3 kinase
Chain of RAC-gamma serine/threonine-protein kinase (Q9Y243 whole entry, looked up): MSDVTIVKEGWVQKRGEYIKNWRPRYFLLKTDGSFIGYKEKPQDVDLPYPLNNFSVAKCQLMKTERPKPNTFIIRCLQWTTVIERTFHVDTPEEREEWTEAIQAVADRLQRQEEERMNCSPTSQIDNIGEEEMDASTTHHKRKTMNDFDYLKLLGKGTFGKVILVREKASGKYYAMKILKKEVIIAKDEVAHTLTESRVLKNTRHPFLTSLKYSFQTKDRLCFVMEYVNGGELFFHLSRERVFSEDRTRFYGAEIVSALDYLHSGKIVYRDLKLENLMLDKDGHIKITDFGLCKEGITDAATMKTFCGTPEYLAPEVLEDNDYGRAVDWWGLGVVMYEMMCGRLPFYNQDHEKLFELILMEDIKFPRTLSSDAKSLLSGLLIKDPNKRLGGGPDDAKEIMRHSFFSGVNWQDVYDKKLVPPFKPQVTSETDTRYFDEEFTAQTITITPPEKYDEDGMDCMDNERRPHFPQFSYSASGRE

Chain of RAC-alpha serine/threonine-protein kinase (P31749 whole entry): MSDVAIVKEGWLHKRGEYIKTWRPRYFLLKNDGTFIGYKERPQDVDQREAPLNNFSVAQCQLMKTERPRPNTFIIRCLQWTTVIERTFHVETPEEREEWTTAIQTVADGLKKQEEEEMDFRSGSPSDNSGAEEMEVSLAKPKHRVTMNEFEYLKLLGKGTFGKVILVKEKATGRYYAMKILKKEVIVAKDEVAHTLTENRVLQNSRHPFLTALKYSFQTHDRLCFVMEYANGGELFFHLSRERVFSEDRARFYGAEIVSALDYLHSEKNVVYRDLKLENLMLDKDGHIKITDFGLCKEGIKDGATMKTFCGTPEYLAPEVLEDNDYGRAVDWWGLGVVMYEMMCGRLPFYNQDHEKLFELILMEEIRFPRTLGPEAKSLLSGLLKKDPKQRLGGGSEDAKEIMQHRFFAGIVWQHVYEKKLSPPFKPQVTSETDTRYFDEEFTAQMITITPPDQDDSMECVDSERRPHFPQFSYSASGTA

Row | SMILES | IC50 [1] | IC50 [2] | IC50 [3]
1 | Oc1nc2ccccc2n1C1CCN(Cc2ccc(-c3cc4ccccc4nc3-c3ccccc3)cc2)CC1 | 33.7 µM | 3.14 µM | > 50 µM
2 | c1ccc(-c2cc(-c3nn[nH]n3)cnc2-c2ccc(CN3CCC(n4cnc5ccccc54)CC3)cc2)cc1 | 1.96 µM | 4.24 µM | > 50 µM
3 | c1ccc(-c2cc(-c3nn[nH]n3)cnc2-c2ccc(CN3CCC(c4nc5ccccc5[nH]4)CC3)cc2)cc1 | 1.5 µM | 3.32 µM | > 50 µM
4 | Fc1ccc2[nH]c(C3CCN(Cc4ccc(-c5ncc(-c6nn[nH]n6)cc5-c5ccccc5)cc4)CC3)nc2c1 | 1.72 µM | 0.239 µM | > 50 µM
5 | Cc1ccc2[nH]c(C3CCN(Cc4ccc(-c5ncc(C#N)cc5-c5ccccc5)cc4)CC3)nc2c1 | 11.4 µM | 2.87 µM | > 50 µM
6 | Cn1nnnc1-c1cnc(-c2ccc(CN3CCC(n4c(=O)[nH]c5ccccc54)CC3)cc2)c(-c2ccccc2)c1 | 0.613 µM | 1.77 µM | 
7 | N#Cc1cnc(-c2ccc(CN3CCC(n4c(=O)[nH]c5ccccc54)CC3)cc2)c(-c2ccccc2)c1 | 3.14 µM | 0.762 µM | > 50 µM
8 | O=c1[nH]c2ccccc2n1C1CCN(Cc2ccc(-c3ncc(-c4nnn[nH]4)cc3-c3ccccc3)cc2)CC1 | 0.157 µM | 0.273 µM | > 50 µM
9 | Oc1nc2ccccc2n1C1CCN(Cc2ccc(-c3nc4ccccc4cc3-c3ccccc3)cc2)CC1 | 1.21 µM | 0.365 µM | > 50 µM
10 | N#Cc1cnc(-c2ccc(CNCc3ccc(-c4csnn4)cc3)cc2)c(-c2ccccc2)c1 | 4.81 µM | 1.29 µM | > 50 µM
11 | N#Cc1cnc(-c2ccc(CN3CCC(n4cnc5ccccc54)CC3)cc2)c(-c2ccccc2)c1 | 13 µM | 4.4 µM | > 50 µM
12 | Cc1ccc2[nH]c(C3CCN(Cc4ccc(-c5ncc(-c6nn[nH]n6)cc5-c5ccccc5)cc4)CC3)nc2c1 | 0.422 µM | 0.763 µM | > 50 µM
13 | N#Cc1cnc(-c2ccc(CN3CCC(c4nc5cc(F)ccc5[nH]4)CC3)cc2)c(-c2ccccc2)c1 | 6.65 µM | 0.865 µM | > 50 µM
14 | N#Cc1cnc(-c2ccc(CN3CCC(c4nc5ccccc5[nH]4)CC3)cc2)c(-c2ccccc2)c1 | 8.74 µM | 1.47 µM | > 50 µM
15 | Cc1nc2ccccc2n1C1CCN(Cc2ccc(-c3ncc(-c4nn[nH]n4)cc3-c3ccccc3)cc2)CC1 | 2.75 µM | 6.91 µM | > 50 µM
16 | c1ccc(-c2cc(-c3nn[nH]n3)cnc2-c2ccc(CNCc3ccc(-c4csnn4)cc3)cc2)cc1 | 0.248 µM | 0.177 µM | > 50 µM
17 | Cc1nc2ccccc2n1C1CCN(Cc2ccc(-c3ncc(C#N)cc3-c3ccccc3)cc2)CC1 | 18.4 µM | 7.41 µM | > 50 µM
